Assay results: patent US9376440B2, “Pyrrolobenzodiazepines as antiproliferative agents” (MEDIMMUNE LIMITED, priority 2012, dated 2016)
pIC50: −log10 of the molar value. Like-named read-outs stand apart in the source and are kept apart here.

Assays:
A2780 (ovarian) = test: MTT cytotoxicity assay, A2780; assay type: cell-based; details: Homo sapiens, read-out: IC50 (nM) A2780
Description: (§1) The cytotoxicity potential of the compounds of the invention 16c-h was compared with the comparative compounds 16a, 16b and GWL-78 in a number of tumour cell lines and the non-cancer cell line WI38 after 96 hours exposure using the MTT (3-(4,5-Dimethylthiazol-2-yl)-2,5-diphenyltetrazolium bromide) colorimetric assay, as described below.
(§2) A panel of several types of human cancer cell lines including epidermoid (A431), lung (A549), ovarian (A2780) and breast (MCF7 and MDAMB-231), as well as the non-tumour cell line WI38, were used to determine the cytotoxicity of the compounds. The cells were grown in normal conditions at 37° C. under a 5% CO2 humidified atmosphere, either in Dulbecco's Modified Eagle Medium or Modified Eagle Medium (depending on the cell line), supplemented with 10% fetal bovine serum (Biosera, UK), 1% L-glutamine, 1% non-essential amino acids and 0.05% hydrocortisone (Gibco, Invitrogen, USA). Cells were then seeded into 96-well plates in a total volume of 160 μl, and allowed to reach a 30-40% degree of confluence before starting the experiment. The ligands were dissolved in sterilized ultrapure water at a maximum concentration of 100 μM, and serial decimal dilutions prepared. These were added to the cells in a volume of 40 μl. After 96 hours of continuous exposure to each ligand, the cytotoxicity was determined by the MTT (3-(4,5-Dimethylthiazol-2-yl)-2,5-diphenyltetrazolium bromide) (Lancaster Synthesis Ltd, UK) colorimetric assay (Skehan P, S. R., et al., Journal of the National Cancer Institute 1990, 82, 1107). Absorbance was quantified by spectrophotometry at A=570 nm (ELx808, Bio-Tek Instruments, Inc., USA). IC50 values were calculated by a dose-response analysis using the Origin 6.0™ software.

Mia Paca 2 = test: MTT cytotoxicity assay, Mia Paca 2; assay type: cell-based; details: Homo sapiens, read-out: IC50 (nM) Mia Paca 2
Description: as §1, §2

[1] = MTD (maximum tolerated dose) study, intraperitoneal dosing; assay type: in vivo, mouse; details: for weight loss: Swiss-Webster mice, IP, 400 μg/Kg/day
Description: Initially a small scale study was carried out to determine the MTD (maximum tolerated dose) in Swiss-Webster mice using intraperitoneal dosing (IP). […] As 16f provided a marginally better toxicity profile in the MTD study, it was decided to carry out more extensive in vivo tumour xenograft studies on this molecule.

WI38 = test: MTT cytotoxicity assay, non-tumour cell line WI38; assay type: cell-based; details: Homo sapiens, read-out: IC50 (nM) WI38
Description: as §1, §2

primary CLL cells = test: Annexin V/propidium iodide flow cytometry assay in primary CLL cells; assay type: cell-based; details: CLL cell
Description: The cytotoxicity potential of the compounds of the invention 16c-h was also compared with the comparative compounds 16a, 16b and GWL-78 in a primary CLL cell lines using the Annexin V assay (van Engeland, M, et al., Cytometry 1998, 31, 1-9), as described below.
Freshly isolated peripheral blood CLL cells (1×10^8 mL^−1) were cultured in RPMI medium (Invitrogen, Paisley, U.K.) supplemented with 100 U/mL penicillin, […] streptomycin, and 10% fetal calf serum. The cells were incubated at 37° C. in a humidified 5% CO2 atmosphere in the presence of each compound. All compounds were dissolved in DMSO and were evaluated in serial dilutions against the primary CLL cells. In addition, control cultures were carried out to which no drug was added. The cytotoxic effects of the compounds were quantified using an annexin V/propidium iodide flow cytometry assay (Bender Medsystems, Vienna, Austria). All assays were performed in duplicate, and LD50 values were calculated from sigmoidal dose-response curves using the Prism 6.0 software (Graphpad Software Inc., San Diego, Calif.). The sigmoidal dose-response curves were derived by plotting log [compound concentration] against the percentage apoptosis induced by that concentration. A wide range of concentrations were used to establish the biologically active range for each individual compound.

A431 (epidermoid) = test: MTT cytotoxicity assay, A431; assay type: cell-based; details: Homo sapiens, read-out: IC50 (nM) A431
Description: as §1, §2

A549 (lung) = test: MTT cytotoxicity assay, A549; assay type: cell-based; details: Homo sapiens, read-out: IC50 (nM) A549
Description: as §1, §2

phosphorylated-p65 = test: Western Blotting in CLL cells, surrogate for NF-κB activity; assay type: cell-based; details: 24 hours incubation
Description: (§3) Based on the hypothesis that 16f may down-regulate the expression of NF-κB-dependent genes (e.g., IκB, BCL2, BCLXL) by binding to the cognate DNA sequence of NF-κB, thereby blocking interaction of the transcription factor protein and inhibiting transcription of a number of genes, it was decided to explore this possibility in CLL cells in which NF-κB signaling is known to be active and closely correlates with the initiation and progression of malignancy.

phosphorylated IκBα = test: as above; assay type: cell-based; details: 24 hours incubation, concentrations down to 0.1 nM
Description: as §3

[2] = tested on: Mia Paca 2 pancreatic cancer xenograft; test: Mia Paca 2 pancreatic cancer xenograft in mouse model; assay type: in vivo
Description: (§4) An in vivo study of 16f was carried out in a pancreatic cancer xenograft mouse model, in a similar manner to the above. The drug (16f) treated group was administered an IV dose of 300 μg/Kg/day for 5 consecutive days followed by 2 drug free days, and the cycle was continued for 3 weeks.

NF-κB = test: Transcription Factor Activation Profiling Array Assay (Signosis), HeLa; assay type: cell-based; details: 10 nM, 4 hours
Description: (§5) 16f was evaluated in a commercial Transcription Factor Activation Profiling Array Assay™ (Signosis) using the HeLa cell line. In this assay the activities of 48 transcription factors could be monitored simultaneously using a collection of biotin-labeled DNA probes based on the consensus sequences of individual transcription factor DNA-binding sites. […] The activity of NF-κB was reduced by almost 50%.

OCT-4 = test: as above; assay type: cell-based; details: 10 nM, 4 hours
Description: as §5

NFAT = test: as above; assay type: cell-based; details: 10 nM, 4 hours
Description: as §5

EGR = test: as above; assay type: cell-based; details: 10 nM, 4 hours
Description: as §5

SMAD = test: as above; assay type: cell-based; details: 10 nM, 4 hours
Description: as §5

NFκB = test: Immunohistochemical staining of xenograft tumour cross-sections; assay type: in vivo, mouse; details: treated vs controls
Description: as §4

[3] = tested on: MDA MB 231 breast cancer xenograft; test: ER-negative MDA MB 231 breast cancer xenograft study; assay type: in vivo, mouse; details: for in vivo antitumour activity compared to control mice: female MF1 nude mice
Description: In vivo studies of the activity of 16f were carried out in an ER-negative MDA MB 231 breast cancer xenograft in a mouse model. The human breast cancer cell line MDA-MB-231 (5×10^8 cells) was employed to establish xenografts in the flanks of female MF1 nude mice, 2-3 months old and weighing 20-25 g. Subsequent passaging was by the subcutaneous implantation of small tumour pieces (approx 1 mm^3) into the flank. When the tumours reached approx. 0.06 cm^3 (three weeks post implantation) they were divided into 3 groups of 4 mice. The drug treated groups were administered with an IV dose (in DMSO) of either 250 μg/Kg/day or 300 μg/Kg/day for 5 consecutive days followed by two drug free days for 3 weeks, followed by 2 consecutive days in week 4 at which point the dosage was stopped.

DNA = details: cited from earlier work
MDAMB-231 (breast) = test: MTT cytotoxicity assay, MDAMB-231; assay type: cell-based; details: Homo sapiens, MDA-MB-231; 96 hours exposure, MTT; read-out: IC50 (nM) MDAMB-231
Description: as §1, §2

MCF7 (breast) = test: MTT cytotoxicity assay, MCF7; assay type: cell-based; details: Homo sapiens, MCF7; 96 hours exposure, MTT; read-out: IC50 (nM) MCF7
Description: as §1, §2

In the case of `COC(=O)c1cc(-c2ccc(NC(=O)c3cc(NC(=O)CCCOc4cc5c(cc4OC)C(=O)N4CCC[C@H]4C=N5)cn3C)cc2)cn1C` [Compound 16e, (S)-methyl 4-(4-(4-(4-(7-methoxy-5-oxo-2,3,5,11a-tetrahydro-1H-pyrrolo[2,1-c][1,4]benzodiazepine-8-yloxy)butanamido)-1-methyl-1H-pyrrole-2-carboxamido)phenyl)-1-methyl-1H-pyrrole-2-carboxylate], the IC50 (A2780 (ovarian); A2780, 96 h) was 0.013 nM, the IC50 (Mia Paca 2; MIA PaCa-2, 96 h) was 0.0013 nM and the weight loss [1] was “minor weight loss”. The IC50 (WI38; WI-38, 96 h) was 474 nM, the pIC50 (primary CLL cells) was 10.01 and the IC50 (A431 (epidermoid); A-431, 96 h) was 0.0056 nM. For the same compound, the IC50 (A549 (lung); A549, 96 h) was 0.056 nM.

For `COC(=O)c1cc(-c2ccc(NC(=O)c3nc(NC(=O)CCCOc4cc5c(cc4OC)C(=O)N4CCC[C@H]4C=N5)cn3C)cc2)cn1C` [Compound 16f, (S)-methyl 4-(4-(4-(4-(7-methoxy-5-oxo-2,3,5,11a-tetrahydro-1H-pyrrolo[2,1-c][1,4]benzodiazepine-8-yloxy)butanamido)-1-methyl-1H-imidazole-2-carboxamido)phenyl)-1-methyl-1H-pyrrole-2-carboxylate], the “effect on phosphorylated-p65” value (phosphorylated-p65) was “only a marginal effect”, the “suppression of phosphorylated IκBα” value (phosphorylated IκBα) was “significant suppression” and the “tumour growth after last administered dose” value ([2]; 300 μg/Kg, up to 21 days after last dose) was “no growth was observed”. The signs of toxicity ([2]; IV 300 μg/Kg dose level) was “without any signs of toxicity”, the “antitumour activity compared to control mice” value ([2]; IV 300 μg/Kg/day, 5 days on/2 days off, 3 weeks) was “prominent antitumour activity” and the IC50 (A2780 (ovarian); A2780, 96 h) was 0.021 nM. For the same compound, the “reduction of NF-κB activity” value (NF-κB; specific value) was ~50%, the “down-regulation of NF-κB activity” value (NF-κB; top five, at least) was “at least 30%” and the “down-regulation of OCT-4 activity” value (OCT-4) was “at least 30%”. For the same compound, the “down-regulation of NFAT activity” value (NFAT) was “at least 30%”, the “down-regulation of EGR activity” value (EGR) was “at least 30%” and the “down-regulation of SMAD activity” value (SMAD) was “at least 30%”. For the same compound, the IC50 (Mia Paca 2; MIA PaCa-2, 96 h) was 0.0021 nM, the immunohistochemical staining findings (NFκB) was “consistent with NFκB inhibition” and the weight loss [1] was “insignificant weight loss”. The “weight loss or other signs of toxicity” value ([1]; repeat MTD experiment, 350 μg/Kg/day) was “did not show any weight loss or other signs of toxicity”, the “tumour re-growth after last IV dose” value ([3]; 300 μg/Kg dose level, up to 3 weeks after last dose) was “did not re-grow” and the “in vivo antitumour activity compared to control mice” value ([3]; IV 250 μg/Kg/day) was “prominent in vivo antitumour activity”. The “in vivo antitumour activity compared to control mice” value ([3]; IV 300 μg/Kg/day) was “prominent in vivo antitumour activity”, the signs of toxicity ([3]; IV 250 and 300 μg/Kg dose levels) was “without any signs of toxicity” and the IC50 (WI38; WI-38, 96 h) was 129 nM. For the same compound, the pIC50 (primary CLL cells) was 9.77, the IC50 (A431 (epidermoid); A-431, 96 h) was 0.018 nM and the IC50 (A549 (lung); A549, 96 h) was 0.034 nM.

In the case of `COC(=O)c1ccc(NC(=O)c2ccc(NC(=O)CCCOc3cc4c(cc3OC)C(=O)N3CCC[C@H]3C=N4)n2C)n1C` [GWL-78, reference compound], the IC50 (A2780 (ovarian); A2780, 96 hours exposure, MTT) is listed as 0.57 nM, the IC50 (Mia Paca 2; MIA PaCa-2, 96 hours exposure, MTT) is listed as 2.4 nM and the “increase in DNA binding affinity compared to constituent PBD and dipyrrole components” value (DNA) is listed as “up to 50 fold”. It also gave an IC50 (MDAMB-231 (breast)) of 0.12 nM, an IC50 (WI38; WI-38, 96 hours exposure, MTT, non-cancer cell line) of 41.3 nM and an IC50 (MCF7 (breast)) of 0.32 nM. It also gave a pIC50 (primary CLL cells; primary CLL cells, annexin V/propidium iodide, apoptosis, read-out: IC50) of 8.89, an IC50 (A431 (epidermoid); A-431, 96 hours exposure, MTT) of 0.55 nM and an IC50 (A549 (lung); A549, 96 hours exposure, MTT) of 6.1 nM.
